According to patent US20050124624A1, “4-(4-methylpiperazin-1-ylmethyl)-n-[4-methyl-3-(4-pyridin-3-yl)pyrimidin-2-yl-amino)phenyl]-benzamide for threating ang ii-mediated diseases” (priority 2002, published 2005):

Columns and labels:
mesenteric vessels = assay: Histomorphometry of mesenteric vessels (media wall:lumen ratio, trichrome ECM) in angiotensin II-infused rats; type: in vivo, Sprague Dawley rats
Description: (§1) Rats were randomized to receive minipumps filled vehicle (0.15 M NaCl, 1 mmol/l acetic acid) either with or without angiotensin II (58 ng/min), as previously described (Cao Z et col. Kidney Int 58:2437-2451, 2000).
Histochemistry and immunohistochemistry: Histological studies of vascular architecture were performed in a subset of animals (n=8/group). Animals in this subgroup were anesthetized with pentobarbital sodium (Nembutal, Bomac Laboratories, Asquith, Australia) and vessels were perfused at arterial pressure with 10% neutral buffered formalin via an intra-aortic cannula. Tissues were then prepared as previously described (Cooper M E et col.; Diabetes 43:1221-1228,1994). In brief, mesenteric vessels were placed in ice cold phosphate buffer where fat, connective tissue and veins were removed by blunt dissection. The resultant vessel preparation was then embedded in paraffin. Sections were then either histochemically or immunohistochemically stained. […]
Quantification of histopathology: The proportion of vessel wall occupied by the media was identified by immunolabelling for α-smooth muscle actinand the ratio of the wall:lumen quantified using of a video-imaging system (Video Pro 32, Leading Edge, Bedford Park, South Australia, Australia), connected to a light microscope (Zeiss, Oberkocken, Germany) with photographic attachment (Axiophot, Zeiss, Oberkocken, Germany). Using this device, the media (areas stained with the anti-actin antibody) and corresponding lumenal areas were determined in a median of 20 (range 10-35) vessels per animal and expressed as wall:lumen ratio, as previously described in other models of vascular hypertrophy (Kakinuma Yet col.; Kidney Int 42:46-55., 1992).
Quantification of ECM was performed on trichrome-stained sections by calculating the proportion of area occupied by ECM using computer-assisted image analysis as previously described (Lehr H A, et col. J Histochem Cytochem 45:1559-1565, 1997). […]

[1] = test system: platelet-derived growth factor (PDGF); assay: Quantitative real-time RT-PCR of mesenteric vessel PDGF gene expression; type: in vivo, Sprague Dawley rats; details: mesenteric vessel mRNA, angiotensin II infused animals
Description: as §1
(§2) RNA Extraction and cDNA synthesis Frozen mesenteric vascular tissue, stored at −80° C. was homogenized (Ultra-Turrax, Janke and Kunkel, Staufen, Germany) and total RNA was isolated by the acid guanidinium thiocyanate-phenol-chloroform extraction method (Chomczynski P, Sacchi N; Anal Biochem 162:156-159,1987). The purified RNA was dissolved in sterile water, quantified spectrophotometrically and its concentration adjusted to 1 μg/μl. […]
(§3) Quantitative Real Time RT-PCR: Transforming growth factor-β1 (TGF-β1) and platelet-derived growth factor (PDGF) gene expression was quantified by real-time RT-PCR using sequence specific primers as previously reported by our group (Ahola H, et col.; American Journal of Pathology 155:907-913,1999). […] Both probes included a fluorescence reporter (6-carboxyfluorescein [FAM]) at the 5′-end and a fluorescent quencher (6-carboxytetramethylrhodamine [TAMRA]) at the 3′-end. For the relative quantification of the target gene and the endogenous reference 18S ribosomal RNA (18S), real-time quantitative RT-PCR was performed using an GeneAmp 5700 Sequence Detector (PE Biosystems, Foster City, Calif.) according to the manufacturer's instructions. […]

[2] = test system: angiotensin II-infused rats; assay: Angiotensin II infusion in rats: systolic blood pressure and mesenteric vessel weight; details: 60 mg/kg daily gavage, 12 days
[3] = test system: Transforming growth factor-β1 (TGF-β1); assay: Quantitative real-time RT-PCR of mesenteric vessel TGF-β1 gene expression; type: in vivo, Sprague Dawley rats; details: mesenteric vessel mRNA, compared with untreated counterparts also subjected to angiotensin II-infusion
Description: as §1, §2, §3

[4] = trichrome stained sections, 60 mg/kg daily

Which “media wall:lumen ratio” value (mesenteric vessels; 60 mg/kg daily gavage, 12 days, p<0.001) does the source give for `Cc1ccc(NC(=O)c2ccc(CN3CCN(C)CC3)cc2)cc1Nc1nccc(-c2cccnc2)n1` [Imatinib, N-{5-[4-(4-methyl-piperazino-methyl)-benzoylamido]-2-methylphenyl}-4-(3-pyridyl)-2-pyrimidine-amine] here?
Its value is 0.4.

What about the “extent of ECM expansion” value (mesenteric vessels; [4]) of the same molecule?
The value was “significantly reduced”.

And the media hypertrophy (mesenteric vessels; [4])?
The media hypertrophy was “significantly reduced”.

What about the PDGF gene expression [1] of the same molecule?
The PDGF gene expression was “unaffected”.

What about the systolic blood pressure ([2]; angiotensin II (58 ng/min) infused rats, tail-cuff, mean±SE, stated as no effect) of the same molecule?
The systolic blood pressure was 205±10 mmHg.

And the mesenteric weight ([2]; animals receiving angiotensin II, p<0.001, significantly reduced)?
The mesenteric weight was 42 mg.

What about the TGF-β expression [3] of the same molecule?
Its TGF-β expression is “further increase”.
